Measured values as given in patent US20240424426A1, “SOLVENTS FOR SELECTIVE COMPLEXATION OF METAL CATIONS” (THE BOARD OF TRUSTEES OF THE UNIVERSITY OF ALABAMA, priority 2023, published 2024).

Key:
[1] = Liquid-liquid extraction of Li^+ from aqueous LiCl/NaCl solution, ion-selective electrode analysis; settings: 3 mL neat compound mixed with 3 mL aqueous solution containing 100 ppm LiCl and 100 ppm NaCl; aqueous phase analyzed by ion-selective electrode
Experimental: (§1) 3 ml of the compound [F·Me·Me] was added neat to 3 mL of an aqueous solution containing 100 ppm LiCl and 100 ppm NaCl. After vigorous mixing of the organic and aqueous phases in a separatory funnel, the phases were separated, and the aqueous phase was analyzed using ion-selective electrodes for both Li^+ and Na^+.

[2] = Liquid-liquid extraction of Na^+ from aqueous LiCl/NaCl solution, ion-selective electrode analysis; settings: 3 mL neat compound mixed with 3 mL aqueous solution containing 100 ppm LiCl and 100 ppm NaCl; aqueous phase analyzed by ion-selective electrode
Experimental: as §1

COCCOCC(COCC(F)(F)F)OCCOC (centres unmarked) [[F·Me·Me]]
Li^+ extracted by the compound [1]: 26.6% | Na^+ extracted by the compound [2]: 7.3%
